Among the data in patent US9376425B2, “Heterocyclic compounds as MDM2 inhibitors for the treatment of cancer” (AMGEN INC., priority 2011, dated 2016) are IC50 values, retold here.

T1 sequence (Q00987 1-188): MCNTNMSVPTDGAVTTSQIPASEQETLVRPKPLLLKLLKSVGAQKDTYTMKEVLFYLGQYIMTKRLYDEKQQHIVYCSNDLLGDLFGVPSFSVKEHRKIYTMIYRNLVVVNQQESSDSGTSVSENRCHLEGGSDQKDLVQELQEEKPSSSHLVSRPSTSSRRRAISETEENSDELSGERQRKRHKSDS

The experiment addresses T1, human MDM2 (GST-hMDM2 1-188), interaction with biotinylated-p53 (1-83) (Homo sapiens, UniProt Q00987).
T1 construct: Amino acid residues 1-188 of human MDM2 were expressed; made in house; host or cells: Escherichia coli
As to the kind of experiment: improved HTRF assay (HTRF2 assay), inhibition of HDM2-p53 interaction. Type of experiment: binding. The following applies: 0.2 nM GST-hMDM2, 0.5 nM biotinylated-p53, 100 mM KF. A digest of the protocol: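 GST-hMDM2 preincubated 20 min at RT with serially diluted compound, then biotinylated p53 (1-83, E. coli) added for 60 min. Detection with SA-XLent, anti-GST cryptate and KF, equilibrated >4 h; final DMSO 2%. TR-FRET read; % inhibition calculated relative to nutlin-3.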
The compound `CC[C@@H](CN(c1ccccc1F)S(=O)(=O)C1CC1)N1C(=O)[C@@H]([C@@H](C)C(=O)O)O[C@H](c2cccc(Cl)c2)[C@H]1c1ccc(Cl)cc1` (single isomer, unassigned) [Example 253] came in with a 50% inhibitory concentration (IC50) of 18 nM.

Take `CC[C@@H](CN(c1ccccc1F)S(=O)(=O)C1CC1)N1C(=O)[C@@H]([C@@H](C)C(=O)O)O[C@H](c2cccc(Cl)c2)[C@H]1c1ccc(Cl)cc1` (single isomer, unassigned) [Example 254]: the half-maximal inhibitory concentration (IC50) turned out to be 1 nM.

In turn, `CC[C@@H](CN(c1ccccc1F)S(=O)(=O)C1CC1)N1C(=O)[C@@H]([C@@H](C)C(=O)O)O[C@H](c2cccc(Cl)c2)[C@H]1c1ccc(Cl)cc1` (single isomer, unassigned) [Example 255] yielded an IC50 of 4 nM.

In the case of `NC(=O)C[C@@H]1O[C@H](c2cccc(Cl)c2)[C@@H](c2ccc(Cl)cc2)N([C@H](CN(c2ccccc2F)S(=O)(=O)C2CC2)C2CC2)C1=O` (single isomer, unassigned) [Example 256, 2-((2S,5R,6R)-6-(3-chlorophenyl)-5-(4-chlorophenyl)-4-((S)-1-cyclopropyl-2-(N-(2-fluorophenyl)cyclopropanesulfonamido)ethyl)-3-oxomorpholin-2-yl)acetamide or 2-((2R,5R,6R)-6-(3-chlorophenyl)-5-(4-chlorophenyl)-4-((S)-1-cyclopropyl-2-(N-(2-fluorophenyl)cyclopropanesulfonamido)ethyl)-3-oxomorpholin-2-yl)acetamide], the IC50 was < 1 nM.

`NC(=O)C[C@H]1O[C@H](c2cccc(Cl)c2)[C@@H](c2ccc(Cl)cc2)N([C@H](CN(c2ccccc2F)S(=O)(=O)C2CC2)C2CC2)C1=O` (single isomer, unassigned) [Example 257, 2-((2R,5R,6R)-6-(3-chlorophenyl)-5-(4-chlorophenyl)-4-((S)-1-cyclopropyl-2-(N-(2-fluorophenyl)cyclopropanesulfonamido)ethyl)-3-oxomorpholin-2-yl)acetamide or 2-((2S,5R,6R)-6-(3-chlorophenyl)-5-(4-chlorophenyl)-4-((S)-1-cyclopropyl-2-(N-(2-fluorophenyl)cyclopropanesulfonamido)ethyl)-3-oxomorpholin-2-yl)acetamide]: the 50% inhibitory concentration (IC50) is < 1 nM.

`CC[C@@H](CN(c1ccccc1F)S(=O)(=O)C1CC1)N1C(=O)[C@H](CC(=O)NS(=O)(=O)C(C)C)O[C@H](c2cccc(Cl)c2)[C@H]1c1ccc(Cl)cc1` (single isomer, unassigned) [Example 258, 2-((2S,5R,6R)-6-(3-chlorophenyl)-5-(4-chlorophenyl)-4-((S)-1-(N-(2-fluorophenyl)cyclopropanesulfonamido)butan-2-yl)-3-oxomorpholin-2-yl)-N-(isopropylsulfonyl)acetamide or 2-((2R,5R,6R)-6-(3-chlorophenyl)-5-(4-chlorophenyl)-4-((5)-1-(N-(2-fluorophenyl)cyclopropanesulfonamido)butan-2-yl)-3-oxomorpholin-2-yl)-N-(isopropylsulfonyl)acetamide] came in with a half-maximal inhibitory concentration (IC50) of 1 nM.

Compound `CC[C@@H](CN(c1ccccc1F)S(=O)(=O)C1CC1)N1C(=O)[C@@H](CC(=O)NS(=O)(=O)C(C)C)O[C@H](c2cccc(Cl)c2)[C@H]1c1ccc(Cl)cc1` (single isomer, unassigned) [Example 259, 2-((2R,5R,6R)-6-(3-chlorophenyl)-5-(4-chlorophenyl)-4-((S)-1-(N-(2-fluorophenyl)cyclopropanesulfonamido)butan-2-yl)-3-oxomorpholin-2-yl)-N-(isopropylsulfonyl)acetamide or 2-((2S,5R,6R)-6-(3-chlorophenyl)-5-(4-chlorophenyl)-4-((S)-1-(N-(2-fluorophenyl)cyclopropanesulfonamido)butan-2-yl)-3-oxomorpholin-2-yl)-N-(isopropylsulfonyl)acetamide] yielded a 50% inhibitory concentration (IC50) of 1 nM. This lies in the single-digit nanomolar range.

Compound `CC[C@@H](CS(=O)(=O)C(C)(C)C)N1C(=O)[C@H](CC(N)=O)O[C@H](c2cccc(Cl)c2)[C@H]1c1ccc(Cl)cc1` (single isomer, unassigned) [Example 260, 2-((2S,5R,6R)-4-((S)-1-(tert-butylsulfonyl)butan-2-yl)-6-(3-chlorophenyl)-5-(4-chlorophenyl)-3-oxomorpholin-2-yl)acetamide or 2-((2R,5R,6R)-4-((S)-1-(tert-butylsulfonyl)butan-2-yl)-6-(3-chlorophenyl)-5-(4-chlorophenyl)-3-oxomorpholin-2-yl)] gave an IC50 of 8 nM.

In the case of `CC[C@@H](CS(=O)(=O)C(C)(C)C)N1C(=O)[C@@H](CC(N)=O)O[C@H](c2cccc(Cl)c2)[C@H]1c1ccc(Cl)cc1` (single isomer, unassigned) [Example 261, 2-((2R,5R,6R)-4-((S)-1-(tert-butylsulfonyl)butan-2-yl)-6-(3-chlorophenyl)-5-(4-chlorophenyl)-3-oxomorpholin-2-yl)acetamide or 2-((2S,5R,6R)-4-((S)-1-(tert-butylsulfonyl)butan-2-yl)-6-(3-chlorophenyl)-5-(4-chlorophenyl)-3-oxomorpholin-2-yl)acetamide], the half-maximal inhibitory concentration (IC50) came to 6 nM. This IC50 and that of the compound before are within 1.5-fold of each other.

In turn, `CC[C@@H](CN(c1ccccc1F)S(=O)(=O)C1CC1)N1C(=O)[C@@H](CCC(=O)O)O[C@H](c2cccc(Cl)c2)[C@H]1c1ccc(Cl)cc1` (single isomer, unassigned) [Example 262, 3-((2R,5R,6R)-6-(3-chlorophenyl)-5-(4-chlorophenyl)-4-((S)-1-(N-(2-fluorophenyl)cyclopropanesulfonamido)butan-2-yl)-3-oxomorpholin-2-yl)propanoic acid or 3-((2S,5R,6R)-6-(3-chlorophenyl)-5-(4-chlorophenyl)-4-((S)-1-(N-(2-fluorophenyl)cyclopropanesulfonamido)butan-2-yl)-3-oxomorpholin-2-yl)propanoic acid] showed a half-maximal inhibitory concentration (IC50) of 2 nM.

As for `CC[C@@H](CN(c1ccccc1F)S(=O)(=O)C1CC1)N1C(=O)[C@@H](CCC(=O)O)O[C@H](c2cccc(Cl)c2)[C@H]1c1ccc(Cl)cc1` (single isomer, unassigned) [Example 263, 3-((2R,5R,6R)-6-(3-chlorophenyl)-5-(4-chlorophenyl)-4-((S)-1-(N-(2-fluorophenyl)cyclopropanesulfonamido)butan-2-yl)-3-oxomorpholin-2-yl)propanoic acid or 3-((2S,5R,6R)-6-(3-chlorophenyl)-5-(4-chlorophenyl)-4-((S)-1-(N-(2-fluorophenyl)cyclopropanesulfonamido)butan-2-yl)-3-oxomorpholin-2-yl)propanoic acid], the half-maximal inhibitory concentration (IC50) worked out at 2 nM.

Regarding `CC[C@@H](CN(c1ccccc1Cl)S(=O)(=O)C1CC1)N1C(=O)[C@@H](CC(=O)O)O[C@H](c2cccc(Cl)c2)[C@H]1c1ccc(Cl)cc1` (single isomer, unassigned) [Example 264, 2-((2R,5R,6R)-6-(3-chlorophenyl)-5-(4-chlorophenyl)-4-((S)-1-(N-(2-chlorophenyl)cyclopropanesulfonamido)butan-2-yl)-3-oxomorpholin-2-yl)acetic acid or 2-((2S,5R,6R)-6-(3-chlorophenyl)-5-(4-chlorophenyl)-4-((S)-1-(N-(2-chlorophenyl)cyclopropanesulfonamido)butan-2-yl)-3-oxomorpholin-2-yl)acetic acid], half-maximal inhibition (IC50) was put at 19 nM.

The compound `CC[C@@H](CN(c1ccccc1Cl)S(=O)(=O)C1CC1)N1C(=O)[C@@H](CC(=O)O)O[C@H](c2cccc(Cl)c2)[C@H]1c1ccc(Cl)cc1` (single isomer, unassigned) [Example 265, 2-((2R,5R,6R)-6-(3-chlorophenyl)-5-(4-chlorophenyl)-4-((S)-1-(N-(2-chlorophenyl)cyclopropanesulfonamido)butan-2-yl)-3-oxomorpholin-2-yl)acetic acid or 2-((2S,5R,6R)-6-(3-chlorophenyl)-5-(4-chlorophenyl)-4-((S)-1-(N-(2-chlorophenyl)cyclopropanesulfonamido)butan-2-yl)-3-oxomorpholin-2-yl)acetic acid] showed an IC50 of 1 nM.

`CC(C)(C)S(=O)(=O)C[C@H](C1CCC1)N1C(=O)[C@@H](CC(=O)O)O[C@H](c2cccc(Cl)c2)[C@H]1c1ccc(Cl)cc1` (single isomer, unassigned) [Example 270, 2-((2R,5R,6R)-4-((S)-2-(tert-Butylsulfonyl)-1-cyclobutylethyl)-6-(3-chlorophenyl)-5-(4-chlorophenyl)-3-oxomorpholin-2-yl)acetic acid or 2-((2S,5R,6R)-4-((S)-2-(tert-butylsulfonyl)-1-cyclobutylethyl)-6-(3-chlorophenyl)-5-(4-chlorophenyl)-3-oxomorpholin-2-yl)acetic acid]: the 50% inhibitory concentration (IC50) is 2 nM.

Compound `CC(C)(C)S(=O)(=O)C[C@H](C1CCC1)N1C(=O)[C@@H](CC(=O)O)O[C@H](c2cccc(Cl)c2)[C@H]1c1ccc(Cl)cc1` (single isomer, unassigned) [Example 271, 2-((2R,5R,6R)-4-((S)-2-(tert-Butylsulfonyl)-1-cyclobutylethyl)-6-(3-chlorophenyl)-5-(4-chlorophenyl)-3-oxomorpholin-2-yl)acetic acid or 2-((2S,5R,6R)-4-((S)-2-(tert-butylsulfonyl)-1-cyclobutylethyl)-6-(3-chlorophenyl)-5-(4-chlorophenyl)-3-oxomorpholin-2-yl)acetic acid] yielded a half-maximal inhibitory concentration (IC50) of 5 nM.

On to `CC(C)(C)S(=O)(=O)C[C@@H](C1CCC1)N1C(=O)[C@@H](CC(=O)O)O[C@H](c2cccc(Cl)c2)[C@H]1c1ccc(Cl)cc1` (single isomer, unassigned) [Example 272, 2-((2R,5R,6R)-4-((R)-2-(tert-Butylsulfonyl)-1-cyclobutylethyl)-6-(3-chlorophenyl)-5-(4-chlorophenyl)-3-oxomorpholin-2-yl)acetic acid or 2-((2S,5R,6R)-4-((R)-2-(tert-butylsulfonyl)-1-cyclobutylethyl)-6-(3-chlorophenyl)-5-(4-chlorophenyl)-3-oxomorpholin-2-yl)acetic acid], for which the IC50 worked out at 154 nM.

One may read the IC50 as the concentration needed to halve the response being measured. A high value points to a need for much substance.
